Laboratory results: patent publication US12606578B2, “Crystal form of spirocyclic amine aryl phosphorus oxide compound and preparation method therefor” (Qilu Pharmaceutical Co., LTD., priority 2022, dated 2026)
In brackets after ≈: the same amount, converted by molar mass. Blank lines part the entries; values can stand above or below the compound they belong to.

Columns and labels:
[1] = Equilibrium solubility in four media with XRPD of the solids; type: physicochemical; details: for solubility at 24 h: 37 °C, thermodynamic from solid; for solubility at 24 h / Solubility: 200 rpm; for Crystal transformation before and after the solubility test: four media, XRPD; for Crystal transformation before and after the solubility test / Solubility: 37° C.; for solubility at 24 h / Crystal transformation before and after the solubility test / Solubility: 24 h
Procedure: At 37° C., appropriate amounts of the crystal form Q4 and crystal form A of the compound of Formula (I) were taken and dispersed in water, artificial gastric fluid (SGF, Simulated Gastric Fluid), artificial intestinal fluid under fed state (FeSSIF, Fed State Simulated Intestinal Fluid) and artificial intestinal fluid under fasted state (FaSSIF, Fasted State Simulated Intestinal Fluid) respectively to prepare suspension, and after equilibration at 200 rpm for 24 h, the content (mg/mL) of the sample in the solution were tested by HPLC and the samples in the solution were tested by XRPD, respectively.

[2] = Flow ability test (bulk density, tap density, Carr index); type: physicochemical
Procedure: The tap density was measured by SVM203 Tapped Density Meter.
Bulk density and tap density of bulk drugs with different crystal forms and particle sizes were tested, and Carr index was calculated.
Therefore, compared with the crystal form A, the crystal form Q4 has obvious advantages in terms of powder mixing uniformity of bulk drugs and the preparation of solid preparations.

[3] = disclosed in reference CN110407877, 90% RH; cited from earlier work
[4] = Particle size analysis (PSA); type: physicochemical
Procedure: Malvern's laser scattering particle size distribution analyzer was used to analyze the particle size of solid powder. An appropriate amount of solid powder was taken into a sampler, the samples were tested according to the parameters listed in Table 5, and the data was analyzed by Mastersizer-v3.60.

[5] = Stability test under high temperature, high humidity and light (HPLC purity, XRPD); type: physicochemical; details: for Purity: HPLC; for Crystal form: XRPD
Procedure: Determination of HPLC is performed by Waters e2695 high performance liquid chromatograph to analyze the samples.
The stability of the crystal form Q4 of the compound of Formula (I) under high temperature, high humidity and light conditions was investigated. After placing for 5 days and 10 days under specific conditions, purity was tested by HPLC, and XRPD was performed.

[6] = Hydroscopicity experiment (DVS water sorption/desorption); type: physicochemical
Source text: Description of hydroscopicity characteristics and definition of hygroscopic weight gain (Chinese Pharmacopoeia 2020 Edition, General Chapter 9103, Guidelines for Hydroscopicity Trials for Pharmaceuticals): • Deliquescence: absorb enough water to form liquid; • Extremely hygroscopic: the hygroscopic weight gain is not less than 15.0%; • Hygroscopic: hygroscopic weight gain is less than 15.0% but not less than 2.0%; • Mild hygroscopic: hygroscopic weight gain is less than 2.0% but not less than 0.2%; • Non-or almost non-hygroscopic: the hygroscopic weight gain is less than 0.2%.
The hydroscopicity of the samples was determined using a DVS Intrinsic dynamic vapor sorption analyzer. The samples were placed in a peeled sample basket, the instrument weighed automatically, and the samples were analyzed according to the parameters in Table 4.
According to “Guidelines for Hydroscopicity Trials for Pharmaceuticals” in Chinese Pharmacopoeia 2020 Edition, the data of water sorption/desorption of the crystal form Q4 of the compound of Formula (I) were tested.

[7] = bulk drug D90 69.2 μm (Q4), 62 μm (A)
[8] = bulk drugs of substantially the same particle size used in flow ability test

- solubility at 24 h ([1]; fasted state simulated intestinal fluid (FaSSIF), pH 6.5, fassif, FaSSIF (pH 6.5)): 4560 µg/mL (≈ 8.01 mM)
- solubility at 24 h ([1]; fed state simulated intestinal fluid (FeSSIF), pH 5, fessif, FeSSIF (pH 5.0)): 23600 µg/mL (≈ 41.5 mM)
- solubility at 24 h ([1]; simulated gastric fluid (SGF), pH 1.8, simulated gastric fluid, SGF (pH 1.8)): 9300 µg/mL (≈ 16.3 mM)
- solubility at 24 h ([1]; water): 40 µg/mL (≈ 0.0703 mM)
- Bulk density [2, 7]: 0.48 g/mL
- Carr index: (tap density-bulk density)/tap density [2, 7]: 31.43%
- Evaluation (flow ability) [2, 7]: poor flow
- Tap density [2, 7]: 0.70 g/mL
- Particle size of bulk D90 [4, 8]: 62 μm
Structure (SMILES): COc1cc(N2CCC3(CCN(C)CC3)CC2)ccc1Nc1ncc(Cl)c(Nc2ccccc2P(C)(C)=O)n1 [Crystal form A, reference compound]
- Crystal transformation before and after the solubility test [1]: do not transform before and after the test
- Weight gain under 90% RH humidity condition [3]: 0.17%

Structure (SMILES): COc1cc(N2CCC3(CCN(C)CC3)CC2)ccc1Nc1ncc(Cl)c(Nc2ccccc2P(C)(C)=O)n1 [Crystal form B]
- Weight gain under 90% RH humidity condition [3]: 0.70%

- Solubility compared with the crystal form A ([1]; FaSSIF): better than that of the crystal form A
- Solubility ([1]; FaSSIF (pH 6.5)): 5750 µg/mL (≈ 10.1 mM)
- Solubility ([1]; FeSSIF (pH 5.0)): 23560 µg/mL (≈ 41.4 mM)
- Solubility ([1]; SGF (pH 1.8)): 9280 µg/mL (≈ 16.3 mM)
- Solubility ([1]; Water): 40 µg/mL (≈ 0.0703 mM)
- Bulk density [2, 7]: 0.28 g/mL
- Carr index: (tap density-bulk density)/tap density [2, 7]: 24.32%
- Evaluation (flow ability) [2, 7]: fair flow
- Tap density [2, 7]: 0.37 g/mL
- Bulk density ([2]; bulk drug D90 145.2 μm): 0.42 g/mL
- Carr index: (tap density-bulk density)/tap density ([2]; bulk drug D90 145.2 μm): 17.65%
- Evaluation (flow ability) ([2]; bulk drug D90 145.2 μm): good or medium (16 to 20%)
- Tap density ([2]; bulk drug D90 145.2 μm): 0.51 g/mL
- Related substances: Impurity LG RRT = 1.98 ([5]; 40° C.-5 D): 0.04%
- Related substances: Impurity LO RRT = 0.89 ([5]; 40° C.-5 D): 0.01%
- Related substances: Impurity LP RRT = 1.16 ([5]; 40° C.-5 D): 0.02%
- Related substances: Impurity QA RRT = 0.95 ([5]; 40° C.-5 D): 0.01%
- Purity ([5]; 40° C.-5 D): 99.88%
- Crystal form ([5]; 40° C.-5 D): form Q4
- Related substances: Impurity LG RRT = 1.98 ([5]; 40° C.-10 D): 0.04%
- Related substances: Impurity LO RRT = 0.89 ([5]; 40° C.-10 D): 0.01%
- Related substances: Impurity LP RRT = 1.16 ([5]; 40° C.-10 D): 0.03%
- Related substances: Impurity QA RRT = 0.95 ([5]; 40° C.-10 D): 0.01%
- Purity ([5]; 40° C.-10 D): 99.87%
- Crystal form ([5]; 40° C.-10 D): form Q4
- Related substances: Impurity LG RRT = 1.98 ([5]; 60° C.-5 D): 0.04%
- Related substances: Impurity LO RRT = 0.89 ([5]; 60° C.-5 D): 0.01%
- Related substances: Impurity LP RRT = 1.16 ([5]; 60° C.-5 D): 0.02%
- Related substances: Impurity QA RRT = 0.95 ([5]; 60° C.-5 D): 0.01%
- Purity ([5]; 60° C.-5 D): 99.86%
- Crystal form ([5]; 60° C.-5 D): form Q4
- Related substances: Impurity LG RRT = 1.98 ([5]; 60° C.-10 D): 0.04%
- Related substances: Impurity LO RRT = 0.89 ([5]; 60° C.-10 D): 0.01%
- Related substances: Impurity LP RRT = 1.16 ([5]; 60° C.-10 D): 0.02%
- Related substances: Impurity QA RRT = 0.95 ([5]; 60° C.-10 D): 0.01%
- Purity ([5]; 60° C.-10 D): 99.88%
- Crystal form ([5]; 60° C.-10 D): form Q4
- Related substances: Impurity LG RRT = 1.98 ([5]; 75RH-5 D): 0.04%
- Related substances: Impurity LO RRT = 0.89 ([5]; 75RH-5 D): 0.01%
- Related substances: Impurity LP RRT = 1.16 ([5]; 75RH-5 D): 0.01%
- Related substances: Impurity QA RRT = 0.95 ([5]; 75RH-5 D): 0.01%
- Purity ([5]; 75RH-5 D): 99.88%
- Crystal form ([5]; 75RH-5 D): form Q4
- Related substances: Impurity LG RRT = 1.98 ([5]; 75RH-10 D): 0.04%
- Related substances: Impurity LO RRT = 0.89 ([5]; 75RH-10 D): 0.01%
- Related substances: Impurity LP RRT = 1.16 ([5]; 75RH-10 D): 0.02%
- Related substances: Impurity QA RRT = 0.95 ([5]; 75RH-10 D): 0.01%
- Purity ([5]; 75RH-10 D): 99.88%
- Crystal form ([5]; 75RH-10 D): form Q4
- Related substances: Impurity LG RRT = 1.98 ([5]; 90RH-5 D): 0.04%
- Related substances: Impurity LO RRT = 0.89 ([5]; 90RH-5 D): 0.02%
- Related substances: Impurity LP RRT = 1.16 ([5]; 90RH-5 D): 0.01%
- Related substances: Impurity QA RRT = 0.95 ([5]; 90RH-5 D): 0.01%
- Purity ([5]; 90RH-5 D): 99.87%
- Crystal form ([5]; 90RH-5 D): form Q4
- Related substances: Impurity LG RRT = 1.98 ([5]; 90RH-10 D): 0.04%
- Related substances: Impurity LO RRT = 0.89 ([5]; 90RH-10 D): 0.01%
- Related substances: Impurity LP RRT = 1.16 ([5]; 90RH-10 D): 0.03%
- Related substances: Impurity QA RRT = 0.95 ([5]; 90RH-10 D): 0.01%
- Purity ([5]; 90RH-10 D): 99.83%
- Crystal form ([5]; 90RH-10 D): form Q4
- Related substances: Impurity LG RRT = 1.98 ([5]; Light-5 D): 0.04%
- Related substances: Impurity LO RRT = 0.89 ([5]; Light-5 D): 0.03%
- Related substances: Impurity LP RRT = 1.16 ([5]; Light-5 D): 0.02%
- Related substances: Impurity QA RRT = 0.95 ([5]; Light-5 D): 0.01%
- Purity ([5]; Light-5 D): 99.82%
- Crystal form ([5]; Light-5 D): form Q4
- Related substances: Impurity LG RRT = 1.98 ([5]; Light-10 D): 0.03%
- Related substances: Impurity LO RRT = 0.89 ([5]; Light-10 D): 0.03%
- Related substances: Impurity LP RRT = 1.16 ([5]; Light-10 D): 0.02%
- Related substances: Impurity QA RRT = 0.95 ([5]; Light-10 D): 0.01%
- Purity ([5]; Light-10 D): 99.86%
- Crystal form ([5]; Light-10 D): form Q4
- Related substances: Impurity LG RRT = 1.98 ([5]; Start): 0.03%
- Related substances: Impurity LO RRT = 0.89 ([5]; Start): 0.01%
- Related substances: Impurity LP RRT = 1.16 ([5]; Start): 0.02%
- Related substances: Impurity QA RRT = 0.95 ([5]; Start): 0.01%
- Purity ([5]; Start): 99.90%
- Crystal form ([5]; Start): form Q4
- Degradation / stability ([5]; high temperature, high humidity and light conditions, 5 and 10 days): no obvious degradation
- Evaluation of hydroscopicity ([6]; Chinese Pharmacopoeia 2020 criteria, weight gain at 80% RH): non- or almost non-hygroscopic
- 80% RH weight gain ([6]; DVS, 80% RH): 0.10%
- 90% RH weight gain ([6]; DVS, 90% RH): 0.12%
- D10 ([4]; PSA, Example 3 batch): 10.8 μm
- D50 ([4]; PSA, Example 3 batch): 62.6 μm
- D90 ([4]; PSA, Example 3 batch): 145.2 μm
- Particle size of bulk D90 [4, 8]: 69.2 μm
- Particle size of bulk D90 ([4]; larger particle size Q4 bulk drug used in flow ability test): 145.2 μm
Structure (SMILES): COc1cc(N2CCC3(CCN(C)CC3)CC2)ccc1Nc1ncc(Cl)c(Nc2ccccc2P(C)(C)=O)n1 [Crystal form Q4]
- Crystal transformation before and after the solubility test [1]: do not transform before and after the test
- Flow ability compared with the crystal form A ([2]; substantially the same particle size): better flow ability compared with the crystal form A
- Crystal transformation, XRPD before and after DVS test ([6]; before and after DVS test): no crystal transformation before and after the test
- Hydroscopicity compared with the crystal forms A, B and C ([6]; hygroscopic weight gain comparison): less hydroscopicity than the crystal forms A, B and C

Structure (SMILES): COc1cc(N2CCC3(CCN(C)CC3)CC2)ccc1Nc1ncc(Cl)c(Nc2ccccc2P(C)(C)=O)n1 [Crystal form C]
- Weight gain under 90% RH humidity condition [3]: 0.62%
